Laboratory results published in patent US20050042661A1, “Use of novel compounds to release nucleotides from living cells” (priority 2003, published 2005).

Tests used:
[1] = test system: whole blood diluted with physiological saline 200 times; assay: Extraction efficiency test of ATP, whole blood; format: cell-based; details: Whole blood diluted 200 times
Description: (§1) The extraction efficiency of the release reagent based on a quaternary ethoxylated amine and an ethoxylated amine mixture was also tested against the boiling tris-EDTA buffer and the perchloric acid extraction methods. The samples consisted of whole blood diluted with physiological saline 200 times, a suspension of E. coli bacteria in concentration of one million cells per milliliter, and a suspension of green algae, Chlorella sp. […]
(§2) Measurement of ATP by bioluminescence: 100 microliter aliquots of extracted sample solution were pipetted into transparent glass cuvettes and these were placed into the light-tight reaction chamber of a photon counter. […] The light emission was integrated for 10 seconds and the results read on the digital display as relative light units. The relative light units were converted to ATP by internal standardization whereby a known quantity of ATP standard was added into an aliquot of the extracted sample and measured as above. […] By subtracting the reading of the sample from that of the sample+added ATP standard a conversion factor for relative light units to ATP was calculated.

[2] = test system: E. coli bacteria; assay: Extraction efficiency test of ATP, E. coli suspension; format: cell-based; details: one million cells per milliliter
Description: as §1, §2

[O-][Cl+3]([O-])([O-])O [Perchloric acid method, perchloric acid]
ATP extraction efficiency [1]: 7% | ATP extraction efficiency [2]: 3%
